Test results published in patent US20250002548A1, “Wild Boar Cathelicidin Peptide Variants and Vectors Encoding the Same for Uses in Managing Coronavirus Infections” (Emory University, priority 2021, published 2025).
Square brackets hold non-standard residues; d marks the D form. Peptide text beside a SMILES is read from it.

Legend:
[1] = tested on: Vero E6 and HEK293T cells; settings: administered over 48 hours
[2] = tested on: SARS-CoV-2; settings: ratio of IC50 and TD50; SARS-CoV-2 vs Vero E6 cells
[3] = tested on: human red blood cells (RBCs)
[4] = tested on: SARS-CoV-2

Row | SMILES | cytotoxicity [1] | therapeutic index (TI) [2] | hemolytic activity [3] | IC50 [4] [µM]
1 | CC[C@@H](C)[C@@H](NC(=O)[C@H]1CCCN1C(=O)[C@H]1CCCN1C(=O)[C@H](NC(=O)[C@@H](Cc1c[nH]c2ccccc12)NC(=O)[C@@H](CCCCN)NC(=O)[C@@H](CC(C)C)NC(=O)[C@H](NC(=O)[C@@H](CCCCN)NC(=O)CNC(=O)[C@H](NC(=O)[C@@H](CCCCN)NC(=O)[C@@H](CCCCN)NC(=O)[C@@H](CC(C)C)NC(=O)[C@@H](CCCNC(=N)N)NC(=O)[C@@H](CCCCN)NC(=O)[C@@H](CCCNC(=N)N)NC(=O)[C@H](NC(=O)[C@@H](CCCCN)NC(=O)[C@@H](CCCCN)NC(=O)[C@@H](CCCNC(=N)N)NC(=O)[C@@H](CC(C)C)NC(=O)[C@@H](CCCNC(=N)N)NC(=O)[C@@H](CCCNC(=N)N)NC(=O)[C@@H](Cc1ccccc1)NC(=O)[C@@H](CCCNC(=N)N)NC(=O)CNC(=O)[C@H](N)C(C)C)[C@H](C)O)[C@H](C)CC)C(C)C)[C@H](C)CC)C(=O)N[C@@H](C(=O)NCC(=O)N[C@H](CO)C(=O)N[C@@H](C(=O)N1CCC[C@@H]1C(=O)N[C@H](CC(C)C)C(=O)NCC(=O)N[C@H](CO)C(=O)NCC(=O)O)[C@H](C)CC)C(C)C [D-Yongshi] (H-[dV]G[dR][dF][dR][dR][dL][dR][dK][dK][dT][dR][dK][dR][dL][dK][dK][dI]G[dK][dV][dL][dK][dW][dI][dP][dP][dI][dV]G[dS][dI][dP][dL]G[dS]G-OH) | significantly increased cytotoxicity | 1.64 | – | –
2 | CC[C@H](C)[C@H](NC(=O)[C@H](CCCCN)NC(=O)[C@H](CCC(=O)O)NC(=O)[C@H](CCCCN)NC(=O)[C@H](CO)NC(=O)[C@H](CCCCN)NC(=O)[C@H](CCCNC(=N)N)NC(=O)[C@H](Cc1ccccc1)NC(=O)[C@H](Cc1ccccc1)NC(=O)[C@H](CC(=O)O)NC(=O)CNC(=O)[C@H](CC(C)C)NC(=O)[C@@H](N)CC(C)C)C(=O)NCC(=O)N[C@@H](CCCCN)C(=O)N[C@@H](CCC(=O)O)C(=O)N[C@@H](Cc1ccccc1)C(=O)N[C@@H](CCCCN)C(=O)N[C@@H](CCCNC(=N)N)C(=O)N[C@H](C(=O)N[C@H](C(=O)N[C@@H](CCC(N)=O)C(=O)N[C@@H](CCCNC(=N)N)C(=O)N[C@H](C(=O)N[C@@H](CCCCN)C(=O)N[C@@H](CC(=O)O)C(=O)N[C@@H](Cc1ccccc1)C(=O)N[C@@H](CC(C)C)C(=O)N[C@@H](CCCNC(=N)N)C(=O)N[C@@H](CC(N)=O)C(=O)N[C@@H](CC(C)C)C(=O)N[C@H](C(=O)N1CCC[C@H]1C(=O)N[C@@H](CCCNC(=N)N)C(=O)N[C@H](C(=O)N[C@@H](CCC(=O)O)C(=O)N[C@@H](CO)C(=O)O)[C@@H](C)O)C(C)C)[C@@H](C)CC)C(C)C)[C@@H](C)CC [LL-37, reference compound] | – | – | significant hemolytic activity | –
3 | CC[C@H](C)[C@H](NC(=O)[C@H](CCCCN)NC(=O)[C@H](CCCCN)NC(=O)[C@H](CC(C)C)NC(=O)[C@H](CCCNC(=N)N)NC(=O)[C@H](CCCCN)NC(=O)[C@H](CCCNC(=N)N)NC(=O)[C@@H](NC(=O)[C@H](CCCCN)NC(=O)[C@H](CCCCN)NC(=O)[C@H](CCCNC(=N)N)NC(=O)[C@H](CC(C)C)NC(=O)[C@H](CCCNC(=N)N)NC(=O)[C@H](CCCNC(=N)N)NC(=O)[C@H](Cc1ccccc1)NC(=O)[C@H](CCCNC(=N)N)NC(=O)CNC(=O)[C@@H](N)C(C)C)[C@@H](C)O)C(=O)NCC(=O)N[C@@H](CCCCN)C(=O)N[C@H](C(=O)N[C@@H](CC(C)C)C(=O)N[C@@H](CCCCN)C(=O)N[C@@H](Cc1c[nH]c2ccccc12)C(=O)N[C@H](C(=O)N1CCC[C@H]1C(=O)N1CCC[C@H]1C(=O)N[C@H](C(=O)N[C@H](C(=O)NCC(=O)N[C@@H](CO)C(=O)N[C@H](C(=O)N1CCC[C@H]1C(=O)N[C@@H](CC(C)C)C(=O)NCC(=O)N[C@@H](CS)C(=O)NCC(=O)O)[C@@H](C)CC)C(C)C)[C@@H](C)CC)[C@@H](C)CC)C(C)C [PMAP-36R] (H-VGRFRRLRKKTRKRLKKIGKVLKWIPPIVGSIPLGCG-OH; N-terminus and C-terminus assumed) | greater toxicity than LL-37 | – | significant hemolytic activity | 12
4 | CC[C@H](C)[C@H](NC(=O)[C@H](CCCCN)NC(=O)[C@H](CCCCN)NC(=O)[C@H](CC(C)C)NC(=O)[C@H](CCCNC(=N)N)NC(=O)[C@H](CCCCN)NC(=O)[C@H](CCCNC(=N)N)NC(=O)[C@@H](NC(=O)[C@H](CCCCN)NC(=O)[C@H](CCCCN)NC(=O)[C@H](CCCNC(=N)N)NC(=O)[C@H](CC(C)C)NC(=O)[C@H](CCCNC(=N)N)NC(=O)[C@H](CCCNC(=N)N)NC(=O)[C@H](Cc1ccccc1)NC(=O)[C@H](CCCNC(=N)N)NC(=O)CNC(=O)[C@@H](N)C(C)C)[C@@H](C)O)C(=O)NCC(=O)N[C@@H](CCCCN)C(=O)N[C@H](C(=O)N[C@@H](CC(C)C)C(=O)N[C@@H](CCCCN)C(=O)N[C@@H](Cc1c[nH]c2ccccc12)C(=O)N[C@H](C(=O)N1CCC[C@H]1C(=O)N1CCC[C@H]1C(=O)N[C@H](C(=O)N[C@H](C(=O)NCC(=O)N[C@@H](CO)C(=O)N[C@H](C(=O)N1CCC[C@H]1C(=O)N[C@@H](CC(C)C)C(=O)NCC(=O)N[C@@H](CO)C(=O)NCC(=O)O)[C@@H](C)CC)C(C)C)[C@@H](C)CC)[C@@H](C)CC)C(C)C [Yongshi] (H-VGRFRRLRKKTRKRLKKIGKVLKWIPPIVGSIPLGSG-OH) | decreased cytotoxicity compared to the parent PMAP-36R and LL-37 | 3.50 | significantly reduced hemolytic activity | –
